One assay deals with Prothrombin (Homo sapiens, UniProt P00734). The experiment in a line: Inhibition of human thrombin using Ac-FVR-AMC as substrate incubated for 10 mins prior to substrate addition measured for 10 min by fluorescence assay.
The test system of assay [1] is Rattus norvegicus. The assay can be described thus: Anticoagulant activity in Sprague-Dawley rat plasma assessed as fibrinogen level at 3 mg/ml administered for 4 days. In kind it is functional.
Assay [2] relates to Rattus norvegicus. The experiment in a line: Inhibition of thrombin-induced platelet aggregation in Sprague-Dawley rat at 3 mg/ml administered for 4 days relative to control. The assay is classed as functional.
The test system of assay [3] is Rattus norvegicus. The experiment in a line: Inhibition of arterial/venous thromboembolic weight in Sprague-Dawley rat at 3 mg/ml administered for 4 days relative to control. The assay is classed as functional.
The test system of assay [4] is Rattus norvegicus. The assay can be described thus: Anticoagulant activity in Sprague-Dawley rat plasma assessed as prothrombin time at 3 mg/ml administered for 4 days. The assay is classed as functional.
Another assay deals with Plasma. The experiment in a line: Anticoagulant activity in Sprague-Dawley rat plasma assessed as thrombin time at 3 mg/ml administered for 4 days. In kind it is functional.
Assay [5] concerns Rattus norvegicus. The experiment in a line: Anticoagulant activity in Sprague-Dawley rat plasma assessed as activated partial […] time at 3 mg/ml administered for 4 days. The assay is classed as functional.

Structures are written as SMILES. pIC50: −log10 of the molar value.

Results on 24 molecules are retold here after ChEMBL document CHEMBL3414490 (Eur J Med Chem, 2015).

As to `CCn1c(CNc2ccc(C(=N)N)cc2F)nc2cc(C(=O)N(CCC(=O)O)c3ccc(F)cc3)ccc21`, the pIC50 on Prothrombin was 8.31.

Turning to `Cn1c(CNc2ccc(C(=N)N)cc2F)nc2cc(C(=O)N(CCC(=O)O)c3ccccc3)ccc21`, on Prothrombin, the pIC50 is 8.23.

On to `Cc1ccccc1N(CCC(=O)O)C(=O)c1ccc2c(c1)nc(CNc1ccc(C(=N)N)cc1F)n2C`, for which the negative logarithm of the IC50 (pIC50) on Prothrombin is 8.21.

`Cn1c(CNc2ccc(C(=N)N)cc2F)nc2cc(C(=O)N(CCC(=O)O)c3ccccc3F)ccc21` had a pIC50 against Prothrombin of 8.31.

For the molecule `COc1cccc(N(CCC(=O)O)C(=O)c2ccc3c(c2)nc(CNc2ccc(C(=N)N)cc2F)n3C)c1`, the pIC50 against Prothrombin is 8.32. This pIC50 and that of the molecule before are within 0.2 log units of each other.

`Cn1c(CNc2ccc(C(=N)N)cc2F)nc2cc(C(=O)N(CCC(=O)O)c3cccc(F)c3)ccc21`: the pIC50 against Prothrombin is 8.34.

`COc1ccc(N(CCC(=O)O)C(=O)c2ccc3c(c2)nc(CNc2ccc(C(=N)N)cc2F)n3C)cc1` gave a pIC50 on Prothrombin of 7.79.

Turning to `Cn1c(CNc2ccc(C(=N)N)cc2F)nc2cc(C(=O)N(CCC(=O)O)c3ccc(F)cc3)ccc21`, on Prothrombin, the pIC50 is 8.27.

On Prothrombin, `Cn1c(CNc2ccc(C(=N)N)cc2F)nc2cc(C(=O)N(CCC(=O)O)c3ccccn3)ccc21` showed a pIC50 of 8.46.

For the molecule `Cc1ccc(N(CCC(=O)O)C(=O)c2ccc3c(c2)nc(CNc2ccc(C(=N)N)cc2F)n3C)nc1`, the pIC50 at Prothrombin is 7.62. Against the preceding molecule, the pIC50 is 0.84 log units lower.

Molecule `CCn1c(CNc2ccc(C(=N)N)cc2F)nc2cc(C(=O)N(CCC(=O)O)c3ccccc3)ccc21` had a pIC50 against Prothrombin of 8.25.

As to `CCn1c(CNc2ccc(C(=N)N)cc2F)nc2cc(C(=O)N(CCC(=O)O)c3ccccc3C)ccc21`, the pIC50 at Prothrombin is 8.14.

The molecule `CCn1c(CNc2ccc(C(=N)N)cc2F)nc2cc(C(=O)N(CCC(=O)O)c3ccccc3OC)ccc21` showed a pIC50 on Prothrombin of 7.67.

On Prothrombin, `CCn1c(CNc2ccc(C(=N)N)cc2F)nc2cc(C(=O)N(CCC(=O)O)c3ccccc3F)ccc21` showed a pIC50 of 8.43.

At Prothrombin, `CCn1c(CNc2ccc(C(=N)N)cc2F)nc2cc(C(=O)N(CCC(=O)O)c3cccc(OC)c3)ccc21` gave a pIC50 of 8.08.

`CCn1c(CNc2ccc(C(=N)N)cc2F)nc2cc(C(=O)N(CCC(=O)O)c3cccc(F)c3)ccc21` showed a pIC50 at Prothrombin of 8.31.

As to `CCn1c(CNc2ccc(C(=N)N)cc2F)nc2cc(C(=O)N(CCC(=O)O)c3ccc(OC)cc3)ccc21`, the pIC50 at Prothrombin was 7.63.

`CCn1c(CNc2ccc(C(=N)N)cc2F)nc2cc(C(=O)N(CCC(=O)O)c3ccc(Cl)cc3)ccc21`: the pIC50 against Prothrombin was 7.87. This pIC50 is 0.24 log units higher than that of the molecule before.

Take `Cn1c(CNc2ccc(C(=N)N)cc2)nc2cc(C(=O)N(CCC(=O)O)c3ccccc3F)ccc21`: on Prothrombin, the pIC50 was 8.49.

The molecule `CCn1c(CNc2ccc(C(=N)N)cc2F)nc2cc(C(=O)N(CCC(=O)O)c3ccccn3)ccc21` gave a pIC50 at Prothrombin of 8.47.

For the molecule `CCn1c(CNc2ccc(C(=N)N)cc2F)nc2cc(C(=O)N(CCC(=O)O)c3ccc(C)cn3)ccc21`, the pIC50 on Prothrombin is 7.72.

On to `CCCCCCOC(=O)/N=C(/N)c1ccc(NCc2nc3cc(C(=O)N(CCC(=O)OCC)c4ccccc4F)ccc3n2C)cc1`, for which, in the assay on Rattus norvegicus [1], the Activity was 1.853 g/L. The “inhibition (INH)” value came out at 10.4% in the assay with Rattus norvegicus [2] and 37% with Rattus norvegicus [3]. The PT in the assay on Rattus norvegicus [4] was 11.82 s. Further, the TT in the assay with Plasma worked out at 180 s. Further, the APTT in the assay with Rattus norvegicus [5] is on record as 24.33 s.

Turning to `CCCCCCOC(=O)/N=C(/N)c1ccc(NCc2nc3cc(C(=O)N(CCC(=O)OCC)c4ccccn4)ccc3n2C)c(F)c1`, the Activity with Rattus norvegicus [1] is on record as 1.939 g/L. The results for the “inhibition (INH)” value with Rattus norvegicus [2] and in the assay on Rattus norvegicus [3] were 53.8% and 73%, respectively. Moreover, the PT in the assay on Rattus norvegicus [4] is given as 12.28 s. In the assay on Plasma, the TT is 137.3 s. The APTT in the assay with Rattus norvegicus [5] came out at 25.43 s.

Regarding `CCCCCCOC(=O)NC(=N)c1ccc(NCc2nc3cc(C(=O)N(CCC(=O)OCC)c4ccccn4)ccc3n2C)cc1` [DABIGATRAN ETEXILATE], in the assay on Rattus norvegicus [1], the Activity is 1.561 g/L. Further, the entries for the “inhibition (INH)” value in the assay on Rattus norvegicus [2] and in the assay with Rattus norvegicus [3] were 92.9% and 76%, respectively. For the same molecule, in the assay on Rattus norvegicus [4], the PT is recorded as 57.2 s. In addition, the TT in the assay on Plasma is 180 s. Besides, the APTT in the assay with Rattus norvegicus [5] stood at 76.57 s.
